Laboratory results published in patent US20240189307A1, “METHODS OF STABILIZING THE NEURONAL PROTEOME AGAINST COLLAPSE AND PROTECTING VASCULAR CELLS” (ALBERT EINSTEIN COLLEGE OF MEDICINE, priority 2021, published 2024).

Test system: NIH3T3 cells stably expressing the KFERQ-PS-Dendra reporter
Assay: CMA activity in cells with KFERQ-PS-Dendra reporter (fluorescent puncta per cell)
Format: cell-based, mouse
Settings: increasing concentrations; 12 h, 16 h or 24 h treatment
Method: FIG. 10. Characterization of the brain permeable chemical activator of CMA and effect in a mouse model of Frontotemporal dementia-related proteotoxicity. (A) Chemical structure of AR7 and CA77.1. (B) Quantification of the effect of adding increasing concentrations of AR7 and CA77.1 to NIH3T3 cells stably expressing the KFERQ-PS-Dendra reporter. CMA activity was quantified after 16 h treatment as the average of fluorescent puncta per cell. (n>800 cells per condition). (C) Autophagic flux in NIH3T3 cells incubated at 37° C. for 16 h with 20 µM AR7 or CA77.1 or without additions (none). Where indicated lysosomal protease inhibitors (PI) were added to the cells 6 h before lysis. Left: representative immunoblot. […] Right: quantification of LC3-II flux as the difference in LC3-II levels in cells treated with PI relative to untreated. […] (D) Quantification of the effect of adding increasing concentrations of AR7 and CA77.1 to NIH3T3 cells stably expressing the KFERQ-PS-Dendra reporter. CMA activity was quantified after 12 h or 24 h treatment as the average of fluorescent puncta per cell. […] Representative immunoblot of 4-5 mice per genotype and treatment (L) and densitometric quantification of AT8 as monomer [Kruskal-Wallis statistic=20.48, p<0.0001] […] (O, P) Quantification of the number of Iba1-positive microglial cells per mm^2 in the hippocampus [Kruskal-Wallis statistic=10.55, p=0.0051] […]

## CC(=O)Nc1ccc(-c2cnc3cc(Cl)ccc3n2)cc1 [CA77.1]
  CMA activity in vitro: activates CMA in vitro in dose- and time-dependent manner
